This note sets out measurements from patent publication US12655124B2, “Heterocyclic compounds as modulators of stimulator of interferon genes (STING)” (RYVU THERAPEUTICS S.A., priority 2019, dated 2026).

One test concerns the target human STING (Homo sapiens, UniProt Q86WV6). Nature of the test: Fluorescence Thermal Shift assay (hSTING FTS binding assay).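 Further: STING preincubated with compound for 20 min in HEPES NaCl buffer pH 7.5.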 The note with it: ΔTm, STING 0.1 mg/mL, SyproOrange, 25 to 99° C. Here is the method: Fluorescence Thermal Shift Assay Compounds of the present invention were tested for binding to human STING in Fluorescence Thermal Shift assay. […] Final STING concentration was 0.1 mg/mL. Thermal unfolding was performed in Real-Time PCR QuantStudio 6 Flex System (Applied Biosystems), from 25 to 99° C., with continuous ramp mode and ramp rate 0.033° C./s. The data were analyzed using Protein Thermal Shift Software (ThermoFisher).

Test [1] deals with interferon regulatory factor (IRF) pathway in THP-1 dual cells. Nature of the test: THP-1 Dual reporter assay, IRF pathway (luciferase). Conditions: Homo sapiens, THP1-Dual, 18 h stimulation, luminescence. The test is classed as cell-based. How it is done:
(§1) THP-1 Dual Reporter Assay
(§2) Compounds of the present invention were tested for their activity using THP-1 dual cells (Invivogen, cat no. thpd-nfis) allowing for simultaneous study of NF-κB pathway and the interferon regulatory factor (IRF) pathway. THP-1 dual cells contain luciferase reporter gene under the control of an ISG54 (interferon-stimulated gene) minimal promoter in conjunction with five interferon-stimulated response elements and a secreted embryonic alkaline phosphatase reporter gene under the control an IFN (interferon)-β minimal promoter fused to five copies of the NF-κB consensus transcriptional response element with three copies of the c-Rel binding site. Following 18 h of stimulation with STING agonist, medium was collected and transferred onto fresh cell culture plate. To verify activity of the IRF pathway, luminescence activity was measured with standard laboratory plate reader immediately after addition 10 μl of the medium to 40 or 50 μl of luminescence reagent (Invivogen, cat. No. rep-qlc2). To verify activity of NF-κB pathway, 10 or 20 μl of the medium was mixed with 80 μl of a detection medium (Invivogen, cat. No. rep-qb2) and incubated for 1 or 2 hours at 37° C. in a humidified atmosphere containing 5% CO2. Next, absorbance at 630 or 655 nm was recorded using standard laboratory plate reader.
(A reporter such as luciferase makes a cellular process visible.)

Test [2] relates to NF-κB pathway in THP-1 dual cells. The test can be described thus: THP-1 Dual reporter assay, NF-κB pathway (SEAP). Format: cell-based. The note with it: Homo sapiens, THP1-Dual, 18 h stimulation, absorbance at 630 or 655 nm, read-out: THP1 Dual EC50 (μM) NFkB. Here is the method:
as §1, §2

As a reminder, the EC50 is the midpoint of the concentration-response curve.

Where a name gives a salt, the structure may show the parent alone. Where only a bound is given, the exact number is not on record here.

Sequence of human STING (Q86WV6 whole entry H232R): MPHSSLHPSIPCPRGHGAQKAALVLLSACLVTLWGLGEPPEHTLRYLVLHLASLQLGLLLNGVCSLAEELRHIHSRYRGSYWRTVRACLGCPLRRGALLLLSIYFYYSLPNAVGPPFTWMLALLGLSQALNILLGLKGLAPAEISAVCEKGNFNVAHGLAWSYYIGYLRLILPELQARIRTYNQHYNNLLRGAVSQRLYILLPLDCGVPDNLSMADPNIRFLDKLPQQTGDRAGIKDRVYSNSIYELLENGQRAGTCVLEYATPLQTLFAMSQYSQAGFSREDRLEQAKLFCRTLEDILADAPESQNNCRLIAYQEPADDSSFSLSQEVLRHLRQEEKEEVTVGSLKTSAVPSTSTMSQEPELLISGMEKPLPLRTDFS

`Cc1ccc(N2CCC[C@H](N(Cc3ccnc(C)c3)Cc3cn(CCN)c4ccccc4c3=O)C2)cn1` [Example 18, 1-(2-Aminoethyl)-3-({[(3S)-1-(6-methylpyridin-3-yl)piperidin-3-yl][(2-methylpyridin-4-yl)methyl]amino}methyl)-1,4-dihydroquinolin-4-one]: the “hSTING FTS binding assay (ΔT ° C.)” value at human STING was “+ (ΔTm≤10° C.)”. Moreover, the EC50 in test [1] and in test [2] was 1 to 10 µM in each case.

Consider `Cc1cc(CN(Cc2cn(C(C)C)c3cc(F)c(F)cc3c2=O)[C@H]2CCCN(c3ccc(N)nc3)C2)ccn1.Cl` [Example 24, 3-({[(3S)-1-(6-aminopyridin-3-yl)piperidin-3-yl][(2-methylpyridin-4-yl)methyl]amino}methyl)-6,7-difluoro-1-(propan-2-yl)-1,4-dihydroquinolin-4-one Hydrochloride], for which, on human STING, the “hSTING FTS binding assay (ΔT ° C.)” value is on record as “+++ (ΔTm≥20° C.)”. Besides, the EC50 in test [1] and in test [2] was no more than 1 µM each time.

For `Cc1ccc(N2CCC[C@H](N(Cc3ccnc(C)c3)Cc3cn(C4CC4)c4cc(NC(=O)CN)c(F)cc4c3=O)C2)cn1` [Example 25, 2-amino-N-[1-cyclopropyl-6-fluoro-3-({[(3S)-1-(6-methylpyridin-3-yl)piperidin-3-yl][(2-methylpyridin-4-yl)methyl]amino}methyl)-4-oxo-1,4-dihydroquinolin-7-yl]acetamide], the “hSTING FTS binding assay (ΔT ° C.)” value at human STING is given as “+++ (ΔTm≥20° C.)”. For the same molecule, the EC50 in test [1] and in test [2] was no more than 1 µM in each case.

`Cc1ccc(N2CCC[C@H](N(Cc3ccnc(C)c3)Cc3cn(C4CC4)c4nc(N)c(F)cc4c3=O)C2)cn1` [Example 36, 7-amino-1-cyclopropyl-6-fluoro-3-({[(3S)-1-(6-methylpyridin-3-yl)piperidin-3-yl][(2-methylpyridin-4-yl)methyl]amino}methyl)-1,4-dihydro-1,8-naphthyridin-4-one]: the EC50 in test [1] and in test [2] was no more than 1 µM throughout.

For `Cc1cc(CN(Cc2cn(C)c3ccccc3c2=O)[C@H]2CCCN(c3ccc(CCO)nc3)C2)ccn1` [Example 43, 3-({[(3S)-1-[6-(2-hydroxyethyl)pyridin-3-yl]piperidin-3-yl][(2-methylpyridin-4-yl)methyl]amino}methyl)-1-methyl-1,4-dihydroquinolin-4-one], the EC50 in test [1] and in test [2] was 1 to 10 µM throughout.

Regarding `Cc1cc(CN(Cc2cn(C)c3ccccc3c2=O)[C@H]2CCCN(c3cncc(CO)c3)C2)ccn1` [Example 44, 3-({[(3S)-1-[5-(hydroxymethyl)pyridin-3-yl]piperidin-3-yl][(2-methylpyridin-4-yl)methyl]amino}methyl)-1-methyl-1,4-dihydroquinolin-4-one], the EC50 in test [1] and in test [2] was no less than 10 µM each time.

Regarding `Cc1ccc(N2CCC[C@H](N(Cc3ccnc(C)c3)Cc3cn(C4CC4)c4cc(N5CC[C@@H](O)C5)ccc4c3=O)C2)cn1` [Example 45, 1-cyclopropyl-7-[(3R)-3-hydroxypyrrolidin-1-yl]-3-({[(3S)-1-(6-methylpyridin-3-yl)piperidin-3-yl][(2-methylpyridin-4-yl)methyl]amino}methyl)-1,4-dihydroquinolin-4-one], the “hSTING FTS binding assay (ΔT ° C.)” value on human STING is listed as “+++ (ΔTm≥20° C.)”. The EC50 in test [1] and in test [2] was no more than 1 µM in each case.

Regarding `Cc1cc(CN(Cc2cn(C)c3cc(N4CCC(C(=O)O)CC4)ccc3c2=O)[C@H]2CCCN(c3cccnc3)C2)ccn1` [Example 46, 1-[1-methyl-3-({[(2-methylpyridin-4-yl)methyl][(3S)-1-(pyridin-3-yl)piperidin-3-yl]amino}methyl)-4-oxo-1,4-dihydroquinolin-7-yl]piperidine-4-carboxylic Acid], on human STING, the “hSTING FTS binding assay (ΔT ° C.)” value is reported as “++ (10<ΔTm<20° C.)”. The EC50 in test [1] and in test [2] was no less than 10 µM in each case.

Consider `Cc1ccc(N2CCC[C@H](N(Cc3ccnc(C)c3)Cc3cn(C4CC4)c4cc(OCCO)c(F)cc4c3=O)C2)cn1` [Example 47, 1-Cyclopropyl-6-fluoro-7-(2-hydroxyethoxy)-3-({[(3S)-1-(6-methylpyridin-3-yl)piperidin-3-yl][(2-methylpyridin-4-yl)methyl]amino}methyl)-1,4-dihydroquinolin-4-one], for which the “hSTING FTS binding assay (ΔT ° C.)” value on human STING is “+++ (ΔTm≥20° C.)”. Besides, the EC50 in test [1] and in test [2] was no more than 1 µM in each case.

As to `Cc1ccc(N2CCC[C@H](N(Cc3ccnc(C)c3)Cc3cn(C4CC4)c4cc(-n5cc(C(N)=O)nn5)c(F)cc4c3=O)C2)cn1` [Example 60, 1-[1-Cyclopropyl-6-fluoro-3-({[(3S)-1-(6-methylpyridin-3-yl)piperidin-3-yl][(2-methylpyridin-4-yl)methyl]amino}methyl)-4-oxo-1,4-dihydroquinolin-7-yl]-1H-1,2,3-triazole-4-carboxamide], the EC50 in test [1] and in test [2] was no more than 1 µM throughout.

Turning to `Cc1ccc(N2CCC[C@H](N(Cc3ccnc(C)c3)Cc3cn(C4CC4)c4cc(-n5cc(CO)nn5)c(F)cc4c3=O)C2)cn1` [Example 61, 1-Cyclopropyl-6-fluoro-7-[4-(hydroxymethyl)-1H-1,2,3-triazol-1-yl]-3-({[(3S)-1-(6-methylpyridin-3-yl)piperidin-3-yl][(2-methylpyridin-4-yl)methyl]amino}methyl)-1,4-dihydroquinolin-4-one], the EC50 in test [1] and in test [2] was no more than 1 µM each time.

Regarding `Cc1ccc(N2CCC[C@H](N(Cc3ccnc(C)c3)Cc3cn(C)c4c(OCCO)cccc4c3=O)C2)cn1` [Example 63, 8-(2-hydroxyethoxy)-1-methyl-3-({[(3S)-1-(6-methylpyridin-3-yl)piperidin-3-yl][(2-methylpyridin-4-yl)methyl]amino}methyl)-1,4-dihydroquinolin-4-one], the EC50 in test [1] and in test [2] was no more than 1 µM throughout.

As to `COc1cc(CN(Cc2cn(C3CC3)c3cc(N4CC[C@@H](O)C4)c(F)cc3c2=O)[C@H]2CCCN(c3cccnc3)C2)ccn1` [Example 65, 1-cyclopropyl-6-fluoro-7-[(3R)-3-hydroxypyrrolidin-1-yl]-3-({[(2-methoxypyridin-4-yl)methyl][(3S)-1-(pyridin-3-yl)piperidin-3-yl]amino}methyl)-1,4-dihydroquinolin-4-one Hydrochloride], the concentration for a half-maximal effect (EC50) in test [1] and in test [2] was no more than 1 µM throughout.

For `Cc1ccc(N2CCC[C@H](N(Cc3ccnc(C)c3)Cc3cn(C4CC4)c4cc(CN)c(F)cc4c3=O)C2)cn1` [Example 80, 7-(aminomethyl)-1-cyclopropyl-6-fluoro-3-({[(3S)-1-(6-methylpyridin-3-yl)piperidin-3-yl][(2-methylpyridin-4-yl)methyl]amino}methyl)-1,4-dihydroquinolin-4-one], the EC50 in test [1] and in test [2] was no more than 1 µM each time.

For the molecule `Cc1cc(CN(Cc2cn(C3CC3)c3cc(OCCO)c(F)cc3c2=O)[C@H]2CCCN(c3cccnc3)C2)ccn1` [Example 84, 1-cyclopropyl-6-fluoro-7-(2-hydroxyethoxy)-3-({[(2-methylpyridin-4-yl)methyl][(3S)-1-(pyridin-3-yl)piperidin-3-yl]amino}methyl)-1,4-dihydroquinolin-4-one Hydrochloride], the EC50 in test [1] and in test [2] was no more than 1 µM in each case.

Take `Cc1cc(CN(Cc2cn(C3CC3)c3cc(OCCO)c(F)cc3c2=O)[C@H]2CCCN(c3cnccn3)C2)ccn1.Cl` [Example 85, 1-cyclopropyl-6-fluoro-7-(2-hydroxyethoxy)-3-({[(2-methylpyridin-4-yl)methyl][(3S)-1-(pyrazin-2-yl)piperidin-3-yl]amino}methyl)-1,4-dihydroquinolin-4-one Hydrochloride]: on human STING, the “hSTING FTS binding assay (ΔT ° C.)” value is on record as “++ (10<ΔTm<20° C.)”. Also, the EC50 in test [1] and in test [2] was no more than 1 µM throughout.

Turning to `Cc1cc(CN(Cc2cn(C3CC3)c3cc(OCCO)c(F)cc3c2=O)[C@H]2CCCN(c3ccc(Cl)nc3)C2)ccn1` [Example 97, 3-({[(3S)-1-(6-chloropyridin-3-yl)piperidin-3-yl][(2-methylpyridin-4-yl)methyl]amino}methyl)-1-cyclopropyl-6-fluoro-7-(2-hydroxyethoxy)-1,4-dihydroquinolin-4-one Hydrochloride], the EC50 in test [1] and in test [2] was no more than 1 µM each time.
